Laboratory results: publication PMC5784158, “New 2-Aryl-9-methyl-β-carbolinium salts as Potential Acetylcholinesterase Inhibitor agents: Synthesis, Bioactivity and Structure–Activity Relationship” (Scientific Reports, 2018)
Read-outs that look alike come from different tables or passages of the source. Marks after values point to notes of the source that are not given here.

Legend:
[1] = target: T1, AChE (Musca domestica, UniProt Q7YWJ9); assay: Kinetic analysis of AChE inhibition (substrate ATCh); assay type: biochemical, fly; conditions: for Ki: substrate ATCh, read-out: inhibition constant Ki for AChE; for mechanism of AChE inhibition: with respect to substrate ATCh
T1 sequence (Q7YWJ9 81-659): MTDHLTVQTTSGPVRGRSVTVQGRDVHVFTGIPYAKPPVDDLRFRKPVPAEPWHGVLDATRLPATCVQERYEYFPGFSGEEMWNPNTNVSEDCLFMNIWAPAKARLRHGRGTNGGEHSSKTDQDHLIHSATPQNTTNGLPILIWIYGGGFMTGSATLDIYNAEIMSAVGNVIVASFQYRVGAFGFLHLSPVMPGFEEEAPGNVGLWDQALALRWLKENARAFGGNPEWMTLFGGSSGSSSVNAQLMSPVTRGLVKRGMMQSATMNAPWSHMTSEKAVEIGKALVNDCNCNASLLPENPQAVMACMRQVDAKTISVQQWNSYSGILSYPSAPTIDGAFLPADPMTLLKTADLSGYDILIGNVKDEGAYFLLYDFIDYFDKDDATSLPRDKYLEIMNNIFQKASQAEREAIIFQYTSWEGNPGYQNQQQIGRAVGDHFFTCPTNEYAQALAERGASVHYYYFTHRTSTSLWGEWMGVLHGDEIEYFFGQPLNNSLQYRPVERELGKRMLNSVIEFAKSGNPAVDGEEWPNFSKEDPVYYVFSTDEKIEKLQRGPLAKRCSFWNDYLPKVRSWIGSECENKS
From the text: (A and B) The reciprocals of the initial reaction rates and substrate concentrations are plotted. (C and D) The slope values of the lines from graph A or C are plotted versus the inhibitor concentration, affording an equation of linear regression.

[2] = In vitro cytotoxicity, MTT assay; conditions: pig, primary cultured porcine fetal kidney cells
Method: (§1) In vitro cytotoxicity assay
(§2) Cytotoxic activity of the compounds was determined using MTT assay1. Primary cultured goat fetal fibroblasts and primary cultured porcine fetal kidney cells were cultured in the DMEM medium (high glucose) and a mixture culture medium consisting of 50% DMEM (high glucose) and 50% DMEM/F12, respectively, supplemented with 10% fetal bovine serum, penicillin (100 U/mL) and streptomycin (100 μg/mL) at 37 ℃ in 5% CO2. The cells at […]
(§3) After removal of the medium, the cells in each well were treated with 200 μL solution containing different concentrations of the tested compounds and vehicle controls which only received an equivalent amount of DMSO in quintuplicate for 48 h at 37 ℃. Thirty microliter of MTT solution (5 mg/mL in PBS) was added to each well with […] for an additional 4 h. After removing the supernatant, 150 μL of DMSO was added to completely dissolve the formazan crystals that had formed in viable cells in the wells. Finally, the plates were […]
(§4) containing the same media as other test wells but no cells were used as blank controls. All the doses were tested in quintuplicate and the experiments were repeated at least three times. The inhibition rates (IRs) were calculated.
(§5) (GraphPad Software Inc., San Diego, CA, USA).

[3] = target: T2, BuChE (Equus caballus, UniProt P81908); assay: BuChE inhibition, Ellman's method; assay type: biochemical, horse; conditions: read-out: IC50 ± S.D BuChE
T2 construct: BuChE (E.C. 3.1.1.8) (BR, 20 u/mg) from horse serum; purchased Shanghai Yuanye biological technology Co. Ltd (Shanghai, China); host or cells: horse serum (tissue-derived)
T2 sequence (P81908 whole entry): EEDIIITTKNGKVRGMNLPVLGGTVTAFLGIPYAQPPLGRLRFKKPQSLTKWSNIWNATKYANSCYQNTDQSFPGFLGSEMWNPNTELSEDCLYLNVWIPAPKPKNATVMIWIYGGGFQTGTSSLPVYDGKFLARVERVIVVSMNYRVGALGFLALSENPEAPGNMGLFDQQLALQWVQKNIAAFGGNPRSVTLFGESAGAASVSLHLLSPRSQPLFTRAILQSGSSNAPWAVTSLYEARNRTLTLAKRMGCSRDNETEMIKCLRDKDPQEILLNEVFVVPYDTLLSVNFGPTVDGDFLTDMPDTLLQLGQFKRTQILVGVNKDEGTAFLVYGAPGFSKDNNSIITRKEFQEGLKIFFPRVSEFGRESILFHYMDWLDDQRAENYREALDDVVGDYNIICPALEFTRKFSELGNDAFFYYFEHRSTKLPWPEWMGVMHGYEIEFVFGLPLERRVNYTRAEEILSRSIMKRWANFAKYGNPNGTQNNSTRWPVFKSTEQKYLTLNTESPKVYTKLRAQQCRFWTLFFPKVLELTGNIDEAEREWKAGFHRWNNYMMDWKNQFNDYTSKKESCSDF
From the text: There is increasing recognition that BuChE may play an important role in cholinergic transmission[15],[16]. While the level of AChE decreases dramatically in the advanced stage of AD, BuChE increases in brain regions involved in cognitive functions[17],[18]. At this point, BuChE is able to compensate for AChE loss by hydrolyzing ACh. These observations lead one to believe that inhibition of both AChE and BuChE may contribute to improvement of current symptomatic treatments of AD. Therefore, the compounds in Table 2 were also evaluated for BuChE inhibition activity by means of Ellman’s method. […] AChE (E.C. 3.1.1.7) (BR, 200 u/mg) from fly’s head and BuChE (E.C. 3.1.1.8) (BR, 20 u/mg) from horse serum were purchased from Shanghai Yuanye biological technology Co. Ltd (Shanghai, China).
(§6) The inhibitory activities of the compounds against AChE were evaluated according to Ellman’s coupled enzyme assay[47] with the following modifications. 90 μL potassium phosphate buffer (PBS, 0.1 M, pH 7.4), 10 μL the solution of 2 units/mL AChE in 0.1 M PBS (pH 7.4) and 10 μL the solution of 200 μM test compounds in the mixed solution of methanol-PBS (pH 7.4) (1:9, V/V) were added to each well of a 96-well plate. The methanol-PBS solution was used as a blank control. After incubation at room temperature for 10 min, 60 μL the solution of 10 mM DTNB in PBS was added into each the well. The plate was placed on crushed ices and cooled for 20 min. To each the well was added 30 μL the solution of 7.5 mM ATCh in PBS (pH 7.4). […] Each test was performed in triplicate. Inhibition rates of the enzyme were calculated relative to a control sample. The inhibitory activities against BuChE were measured as described above for AChE, using 0.7 unit/mL BuChE and 4 mM BuTCh instead of AChE and ATCh as the enzyme and substrate, respectively.
(§7) The probit value of the average inhibition rate for each test concentration and the corresponding lg[concentration] were used to establish enzyme inhibition regression equation by the linear least-square fitting method. IC50 values were calculated from the equations.

[4] = target: T1, AChE; assay: biochemical; assay type: biochemical, fly; conditions: for IC50: read-out: IC50 ± S.D AChE
Method: AChE (E.C. 3.1.1.7) (BR, 200 u/mg) from fly’s head and BuChE (E.C. 3.1.1.8) (BR, 20 u/mg) from horse serum were purchased from Shanghai Yuanye biological technology Co. Ltd (Shanghai, China).
as §6, §7

[5] = In vitro cytotoxicity, MTT assay; conditions: mouse, mouse neuroblastoma N2a cells
[6] = tested on: primary cultured porcine fetal kidney cells; assay: In vitro cytotoxicity, MTT assay; conditions: read-out: Cytotoxicity IC50, primary cultured porcine fetal kidney cells; 48 h
Method: as §1, §2, §3, §4, §5

[7] = tested on: mouse neuroblastoma N2a cells; assay: In vitro cytotoxicity, MTT assay; conditions: read-out: Cytotoxicity IC50, mouse neuroblastoma N2a cells; 48 h
[8] = tested on: BuChE; conditions: read-out: IC50 ± S.D BuChE; cited from earlier work
[9] = tested on: AChE; conditions: cited from earlier work
[10] = test concentration of the compound 10 μM

Structure (SMILES)	IC50 [3]	SI: selectivity index, ratio IC50 (BuChE)/IC50 (AChE) [4]	IC50 [4]	Inhibition rate (%) [4, 10]	further results
Cc1ccc([N+]2=Cc3c(c4ccccc4n3C)CC2)cc1 [Compound A22]	80.1 ± 5.27 µM	55.2	1.45 ± 0.21 µM		Ki [1]: 483 nM; mechanism of AChE inhibition [1]: competitive; IC50 at 48 h [2]: 5.18 µM; inhibition at 10 µM ([4]; test concentration of the compound 10 μM, read-out: Inhibition rate (%)): 77.6 ± 1.5%; IC50 at 48 h [5]: 2130 nM
Cn1c2ccccc2c2cc[n+](-c3cccc(I)c3)cc21.[Br-] [Compound B12, 9-Methyl-2-(3-iodohenyl)-β-carboline bromide]	21.1 ± 0.46 µM	1.90	11.1 ± 1.34 µM	56.4 ± 5.9 no %	
Cn1c2ccccc2c2cc[n+](-c3ccc(I)cc3)cc21.[Br-] [Compound B13, 9-Methyl-2-(4-iodohenyl)-β-carboline bromide]	40.4 ± 1.83 µM	168.3		93.8 ± 0.4 abcd %	
Cn1c2ccccc2c2cc[n+](-c3cccc(O)c3)cc21.[Br-] [Compound B15, 9-Methyl-2-(3-hydroxyhenyl)-β-carboline bromide]	29.6 ± 2.48 µM	7.60	3.92 ± 0.3 µM	72.1 ± 1.8 l %	
Cn1c2ccccc2c2cc[n+](-c3ccc(O)cc3)cc21.[Br-] [Compound B16, 9-Methyl-2-(4-hydroxyhenyl)-β-carboline bromide]	67.9 ± 11.5 µM	45.3	1.5 ± 0.19 µM	82.1 ± 2.5 ij %	
COc1cccc(-[n+]2ccc3c4ccccc4n(C)c3c2)c1.[Br-] [Compound B18, 9-Methyl-2-(3-methoxylphenyl)-β-carboline bromide]	62.2 ± 3.62 µM	6.42	9.69 ± 0.8 µM	53.5 ± 0.4 op %	
COc1ccc(-[n+]2ccc3c4ccccc4n(C)c3c2)cc1.[Br-] [Compound B19, 9-Methyl-2-(4-methoxylphenyl)-β-carboline bromide]	34 ± 2 µM	72.3	0.47 ± 0.04 µM	90.7 ± 0.8 def %	
Cc1ccccc1-[n+]1ccc2c3ccccc3n(C)c2c1.[Br-] [Compound B20, 9-Methyl-2-(2-methylphenyl)-β-carboline bromide]	154 ± 9.1 µM	15.9	9.71 ± 0.55 µM	59.6 ± 3.2 n %	
Cc1cccc(-[n+]2ccc3c4ccccc4n(C)c3c2)c1.[Br-] [Compound B21, 9-Methyl-2-(3-methylphenyl)-β-carboline bromide]	68.6 ± 8.06 µM	13.6	5.05 ± 0.26 µM	72.4 ± 3.9 l %	
Cc1ccc(-[n+]2ccc3c4ccccc4n(C)c3c2)cc1.[Br-] [Compound B22, 9-Methyl-2-(4-methylphenyl)-β-carboline bromide]	32.2 ± 1.65 µM	111.6		95.2 ± 0.5 abc %	binding capacity with AChE relative to substrate ATCh ([1]; Km of ATCh versus Ki): ~3835 fold; binding capacity with AChE relative to A22 ([1]; ratio of Ki values): approximately 11 fold; Ki [1]: 42.5 nM; mechanism of AChE inhibition [1]: competitive; IC50 [6]: 18.1 µM; IC50 [7]: 19.2 µM
Cn1c2ccccc2c2cc[n+](-c3ccccc3C#N)cc21.[Br-] [Compound B23, 9-Methyl-2-(2-cyanophenyl)-β-carboline bromide]	196 ± 13.4 µM	44.4	4.41 ± 0.29 µM	68.7 ± 0.7 lm %	
Cn1c2ccccc2c2cc[n+](-c3cccc(C#N)c3)cc21.[Br-] [Compound B24, 9-Methyl-2-(3-cyanophenyl)-β-carboline bromide]	212 ± 17.4 µM	20.6	10.3 ± 0.6 µM	50.7 ± 2.2 pq %	
Cn1c2ccccc2c2cc[n+](-c3ccc(C(F)(F)F)cc3)cc21.[Br-] [Compound B27, 9-Methyl-2-(4-trifluoromethylphenyl)-β-carboline bromide]	77.9 ± 4.97 µM	111.3	0.7 ± 0.11 µM	91.4 ± 0.3 bcde %	
Cn1c2ccccc2c2cc[n+](-c3ccc(Cl)cc3Cl)cc21.[Br-] [Compound B30, 9-Methyl-2-(2,4-dichlorophenyl)-β-carboline bromide]	133 ± 26.3 µM	241.1	0.55 ± 0.07 µM	90.6 ± 1.0 def %	
Cn1c2ccccc2c2cc[n+](-c3ccc(Br)cc3F)cc21.[Br-] [Compound B32, 9-Methyl-2-(2-fluoro-4-bromophenyl)-β-carboline bromide]	116 ± 18.2 µM	385.0		92.8 ± 1.0 abc %	
Cn1c2ccccc2c2cc[n+](-c3ccc(Br)cc3Br)cc21.[Br-] [Compound B33, 9-Methyl-2-(2,4-dibromophenyl)-β-carboline bromide]	30.6 ± 2.31 µM	278.2		96.7 ± 0.05 a %	IC50 [6]: > 20 µM; IC50 [7]: 10.6 µM
CC(=O)SCC[N+](C)(C)C [acetylthiocholine iodide, Acetylthiocholine iodide, reference compound]					Km ([1]; substrate): 163 µM
Nc1c2c(nc3cc(Cl)ccc13)C[C@H]1C=C(CCO)C[C@@H]2C1 [huprine W]					IC50 ([9]; inhibitor co-crystallised with AChE (PDB 4BDT), reference not given, read-out: IC50 AChE): 0.0011 µM
